Laboratory results taken from article PMC8198056 (Molecules, 2021).
Numbered stars: 1 amine (or outer) side, 2 acyl side, 3 side chain; on linkers, the order of the positions; unused ones are H or OH. Square brackets hold non-standard residues; d marks the D form. Peptide text beside a SMILES is read from it. X1 = O=C1[C@@H](N[*:1])Cc2ccccc2CN1CCC(=O)[*:2]; Dmt = Cc1cc(O)cc(C)c1C[C@H](N)C(=O)O

Assays:
human MOR [1] = molecular target: T1, human MOR (Homo sapiens, UniProt P35372); assay: Competitive radioligand binding assay ([3H]DAMGO), CHO-hMOR membranes; conditions: CHO-hOR membranes, mean ± SEM, read-out: Receptor Binding Ki
T1 construct: expressed in transfected cells; host or cells: CHO (CHO-hMOR; gift of Lawrence Toll, SRI International)

human DOR [2] = molecular target: T2, human DOR (Homo sapiens, UniProt P41143); assay: Competitive radioligand binding assay ([3H]diprenorphine), CHO-hDOR membranes; conditions: CHO-hOR membranes, mean ± SEM, read-out: Receptor Binding Ki
T2 construct: expressed in transfected cells; host or cells: CHO (CHO-hDOR; gift of Lawrence Toll, SRI International)

human KOR [3] = molecular target: T3, human KOR (Homo sapiens, UniProt P41145); assay: Competitive radioligand binding assay ([3H]U69,593), CHO-hKOR membranes; conditions: [3H]U69,593, CHO-hOR membranes, mean ± SEM, read-out: Receptor Binding Ki
T3 construct: expressed in transfected cells; host or cells: CHO (CHO-hKOR; gift of Lawrence Toll, SRI International)

human MOR [4] = molecular target: T1, human MOR; assay: [35S]GTPγS binding assay, CHO-hMOR membranes; type: biochemical
human DOR [5] = molecular target: T2, human DOR; assay: [35S]GTPγS binding assay, CHO-hDOR membranes; type: biochemical
human KOR [6] = molecular target: T3, human KOR; assay: [35S]GTPγS binding assay, CHO-hKOR membranes; type: biochemical
human NOP receptor = molecular target: T4, human NOP receptor (Homo sapiens, UniProt P41146); assay: [35S]GTPγS binding assay, CHO-hNOP membranes; type: biochemical; conditions: relative to maximum effect of nociceptin (100%)
T4 construct: expressed in transfected cells; host or cells: CHO (CHO-hNOP; gift of Lawrence Toll, SRI International)

mice [7] = assay: CFA-induced chronic inflammatory pain, thermal sensitivity (Hargreaves test); type: in vivo, mouse
mice [8] = assay: CFA-induced chronic inflammatory pain, mechanical sensitivity (von Frey test); type: in vivo, mouse; conditions: 1.22 µmol/kg s.c.
[9] = set-up: method as in PMID 27035422; conditions: cited from earlier work
rats [10] = conditions: acute i.t. administration in rats; cited from earlier work
rats [11] = tested on: rats; set-up: method as in PMID 27035422, PMID 28135212; conditions: i.v. at equianalgesic doses to rats; cited from earlier work
mice [12] = assay: Conditioned place preference (CPP); conditions: 1.22 and 2.44 µmol/kg s.c., 4-day conditioning
mice [13] = assay: Open-field test (spontaneous locomotor activity)
mice [14] = assay: Formalin test (formalin-induced acute inflammatory pain); conditions: for %Antinociceptive effect Phase I: Phase I 0-5 min; for %Antinociceptive effect Phase II: Phase II 15-60 min

CC[C@H](C)[C@H](NC(=O)[C@H](CCCNC(=N)N)NC(=O)[C@H](Cc1ccc(O)cc1)NC(=O)[C@H](Cc1ccc(O)cc1)NC(=O)[C@H](CCCNC(=N)N)NC(=O)CCN1Cc2ccccc2C[C@H](NC(=O)[C@@H](CCCNC(=N)N)NC(=O)[C@@H](N)Cc2c(C)cc(O)cc2C)C1=O)C(=O)N[C@@H](CCCCN)C(N)=O [KGNOP1, H-Dmt-D-Arg-Aba-β-Ala-Arg-Tyr-Tyr-Arg-Ile-Lys-NH2] (H-[Dmt][dR][X1]RYYRIK-NH2)
Ki (human MOR [1]): 0.00042 ± 8e-05 µM
Ki (human DOR [2]): 0.0122 ± 0.0035 µM
Ki (human KOR [3]): 0.0134 ± 0.0043 µM
EC50 (human MOR [4]): 0.0025 ± 0.00081 µM
Emax (human MOR [4]; relative to maximum effect of DAMGO (100%)): 92 ± 4%
EC50 (human DOR [5]): 0.0516 ± 0.0178 µM
Emax (human DOR [5]; relative to maximum effect of DPDPE (100%)): 106 ± 3%
EC50 (human KOR [6]): 0.112 ± 0.032 µM
Emax (human KOR [6]; relative to maximum effect of U69,593 (100%)): 37 ± 3%
Emax (human NOP receptor): 99 ± 8%
Time span of significant inhibition of thermal hyperalgesia vs saline (mice [7]; 0.49 µmol/kg s.c.): 30 to 240 min
% reversal of thermal sensitivity (mice [7]; 0.49 µmol/kg s.c., 30 min): 23.5%
% reversal of thermal sensitivity (mice [7]; 0.49 µmol/kg s.c., 1 h): 38.1%
% reversal of thermal sensitivity (mice [7]; 0.49 µmol/kg s.c., 2 h): 59.8%
% reversal of thermal sensitivity (mice [7]; 0.49 µmol/kg s.c., 3 h): 40.2%
% reversal of thermal sensitivity (mice [7]; 0.49 µmol/kg s.c., 4 h): 25.4%
% reversal of thermal sensitivity (mice [7]; 0.49 µmol/kg s.c., 5 h): 15.7%
% reversal of thermal sensitivity (mice [7]; 0.49 µmol/kg s.c., 6 h): 9.3%
% reversal of thermal sensitivity (mice [7]; 0.49 µmol/kg s.c., 7 h): -1.46%
% reversal of thermal sensitivity (mice [7]; 0.49 µmol/kg s.c., 8 h): 6.12%
% reversal of thermal sensitivity (mice [7]; 0.49 µmol/kg s.c., 24 h): -3.79%
Time of maximum efficacy, Hargreaves test (mice [7]; 1.22 µmol/kg s.c.): two hours
Time span of significant inhibition of thermal hyperalgesia vs saline (mice [7]; 1.22 µmol/kg s.c.): 30 to 360 min
% reversal of thermal sensitivity (mice [7]; 1.22 µmol/kg s.c., 30 min): 31.9%
% reversal of thermal sensitivity (mice [7]; 1.22 µmol/kg s.c., 1 h): 54.4%
% reversal of thermal sensitivity (mice [7]; 1.22 µmol/kg s.c., 2 h): 98.6%
% reversal of thermal sensitivity (mice [7]; 1.22 µmol/kg s.c., 3 h): 78.6%
% reversal of thermal sensitivity (mice [7]; 1.22 µmol/kg s.c., 4 h): 58.2%
% reversal of thermal sensitivity (mice [7]; 1.22 µmol/kg s.c., 5 h): 26.0%
% reversal of thermal sensitivity (mice [7]; 1.22 µmol/kg s.c., 6 h): 26.7%
% reversal of thermal sensitivity (mice [7]; 1.22 µmol/kg s.c., 7 h): 10.2%
% reversal of thermal sensitivity (mice [7]; 1.22 µmol/kg s.c., 8 h): 9.15%
% reversal of thermal sensitivity (mice [7]; 1.22 µmol/kg s.c., 24 h): 6.72%
Duration of reversal of CFA-induced thermal hyperalgesia (mice [7]; s.c.): up to 6 h
Time points of significant effect on mechanical stimulation vs saline (mice [8]): one hour
% reversal of mechanical sensitivity (mice [8]; 30 min): -6.71%
% reversal of mechanical sensitivity (mice [8]; 1 h): 65.4%
% reversal of mechanical sensitivity (mice [8]; 2 h): 19.1%
% reversal of mechanical sensitivity (mice [8]; 3 h): -8.73%
% reversal of mechanical sensitivity (mice [8]; 4 h): 21.1%
% reversal of mechanical sensitivity (mice [8]; 5 h): -0.50%
% reversal of mechanical sensitivity (mice [8]; 6 h): -12.9%
% reversal of mechanical sensitivity (mice [8]; 7 h): -8.30%
% reversal of mechanical sensitivity (mice [8]; 8 h): -2.42%
% reversal of mechanical sensitivity (mice [8]; 24 h): -8.66%
Half-life time t1/2 in human plasma [9]: 9.77 h
Effect on evoked locomotor activity in the rotarod test (rats [10]): lack of KGNOP1′s effect on the evoked locomotor activity
Respiratory depression in contrast to morphine (rats [11]): significantly less respiratory depression
CPP response vs saline (mice [12]): no significant preference at any tested dose
Spontaneous locomotor activity (distance traveled) vs saline (mice [13]; 1.22 µmol/kg s.c. daily for 4 days): no significant alteration in locomotion
Spontaneous locomotor activity (distance traveled) vs saline (mice [13]; 2.44 µmol/kg s.c., only at day 1): significant decrease in locomotion
%Antinociceptive effect Phase I (mice [14]; 0.12 µmol/kg s.c.): 33.9 ± 3.8%
%Antinociceptive effect Phase II (mice [14]; 0.12 µmol/kg s.c.): 2.3 ± 11.1%
%Antinociceptive effect Phase I (mice [14]; 0.49 µmol/kg s.c.): 33.7 ± 9.3%
%Antinociceptive effect Phase II (mice [14]; 0.49 µmol/kg s.c.): 51.8 ± 9.7%
Pain response counted between 15 and 60 min (mice [14]; 1.22 µmol/kg s.c.): almost complete inhibition of the pain response
%Antinociceptive effect Phase I (mice [14]; 1.22 µmol/kg s.c.): 55.6 ± 7.3%
%Antinociceptive effect Phase II (mice [14]; 1.22 µmol/kg s.c.): 71.4 ± 6.8%
Antinociceptive effect after pre-treatment with SB-612111 (mice [14]; KGNOP1 1.22 µmol/kg s.c., SB-612111 6.6 µmol/kg s.c., -30 min, Phase I and II): significantly reversed the antinociceptive response
Antinociceptive effect after pre-treatment with naltrexone (mice [14]; KGNOP1 1.22 µmol/kg s.c., naltrexone 2.6 µmol/kg s.c., -15 min, Phase I and II): significant antagonism of the antinociceptive effect
Antinociceptive ED50 (95% CL), Phase I (mice [14]; s.c., acute nociceptive Phase I (0-5 min)): 1.17 µmol/kg
Antinociceptive ED50 (95% CL), Phase II (mice [14]; s.c., inflammatory Phase II (15-60 min)): 0.55 µmol/kg
